For the test, the target named is T1, recombinant human GPR52 (Homo sapiens, UniProt Q9Y2T5).
T1 construct: expressed in transfected cells
The experiment in a line: GPR52 activity: TR-FRET cAMP assay (LANCE Ultra cAMP Kit). The class given is cell-based. The settings on record: Flp-In-CHO cells stably expressing recombinant human GPR52; cAMP production, normalized to positive control. How it is done:
TR-FRET cAMP assays were performed using commercially available assay kits (LANCE™ Ultra cAMP Kit). Controls and compounds were solubilized in DMSO using ½ log dilution to generate duplicate 10-point dose response curves in 384-well polypropylene compound plates. Sixty nanoliters of the diluted compounds were transferred into 384-well NBS assay plates and further diluted to 1× with the addition of 2000 cells per well. Flp-In™-CHO cells that stably express recombinant human GPR52.
Cells were harvested with cell stripper and resuspended in Stimulation Buffer (5 mM HEPES, 0.1% bovine serum albumin (BSA), 0.5 mM IBMX, pH 7.4). After thirty minutes incubation at room temperature, detection reagents were added to each well. Plates were then incubated for 30 minutes at room temperature. The LANCE™ Ultra cAMP assay uses time-resolved fluorescence resonance energy transfer (TR-FRET) to detect cAMP production; this signal was quantified using a Pherastar multi-mode plate reader.
Dose-response curves were generated from the fluorescence counts normalized to the positive control. E EC50 values were obtained using a nonlinear regression curve-fitting program.
Background: In TR-FRET formats the signal depends on donor and acceptor labels being close together.

Structures are written as SMILES. Where a name gives a salt, the structure may show the parent alone.

The term EC50 denotes the midpoint of the concentration-response curve.

T1 sequence (Q9Y2T5 whole entry): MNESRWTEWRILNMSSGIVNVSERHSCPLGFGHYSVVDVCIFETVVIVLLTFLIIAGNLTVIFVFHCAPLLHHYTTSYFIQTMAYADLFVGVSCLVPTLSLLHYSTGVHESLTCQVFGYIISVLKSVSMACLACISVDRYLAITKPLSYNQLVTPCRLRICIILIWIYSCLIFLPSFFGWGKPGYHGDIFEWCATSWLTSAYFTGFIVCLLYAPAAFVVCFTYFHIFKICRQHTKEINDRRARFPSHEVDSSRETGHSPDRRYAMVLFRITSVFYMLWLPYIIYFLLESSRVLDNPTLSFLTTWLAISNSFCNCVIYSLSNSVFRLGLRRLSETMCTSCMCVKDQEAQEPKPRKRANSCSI

`Cc1cc(-c2cc(Cc3cccc(C(F)(F)F)c3)ccn2)ccc1C(N)=O` [Compound 1, 2-methyl-4-(4-{[3-(trifluoromethyl)phenyl]methyl}pyridin-2-yl)benzamide]: the EC50 was less than 25 nM.
For `Cc1cc(-c2cc(Cc3cc(F)c(F)c(Cl)c3)ccn2)ccc1C(N)=O` [Compound 2, 4-{4-[(3-chloro-4,5-difluorophenyl)methyl]pyridin-2-yl}-2-methylbenzamide] the value was less than 25 nM; for `Cc1cc(-c2cc(Cc3cc(F)cc(C#N)c3)ccn2)ccc1C(N)=O` [Compound 3, 4-{4-[(3-cyano-5-fluorophenyl)methyl]pyridin-2-yl}-2-methylbenzamide], less than 25 nM; for `COc1cc(Cc2ccnc(-c3ccc(C(N)=O)c(C)c3)c2)cc(F)c1F` [Compound 4, 4-{4-[(3,4-difluoro-5-methoxyphenyl)methyl]pyridin-2-yl}-2-methylbenzamide], less than 25 nM.
For the compound `CSc1cccc(Cc2ccnc(-c3ccc(C(N)=O)c(C)c3)c2)c1` [Compound 5, 2-methyl-4-(4-{[3-(methylsulfanyl)phenyl]methyl}pyridin-2-yl)benzamide], the EC50 is less than 25 nM.
Consider `N#Cc1cc(Cc2ccnc(-c3ccc(C(N)=O)c(C(F)(F)F)c3)c2)cc(F)c1F` [Compound 6, 4-{4-[(3-cyano-4,5-difluorophenyl)methyl]pyridin-2-yl}-2-(trifluoromethyl)benzamide], for which the concentration for a half-maximal effect (EC50) was less than 25 nM.
The same measure for `Cc1cc(-c2cc(Cc3cc(F)c(F)c(C#N)c3)ccn2)ccc1C(N)=O` [Compound 7, 4-{4-[(3-cyano-4,5-difluorophenyl)methyl]pyridin-2-yl}-2-methylbenzamide]: 25 to 100 nM; for `Cc1cc(-c2cc(Cc3ccc(F)c(C#N)c3)ccn2)ccc1C(N)=O` [Compound 8, 4-{4-[(3-cyano-4-fluorophenyl)methyl]pyridin-2-yl}-2-methylbenzamide]: 25 to 100 nM; for `Cc1cc(-c2cc(Cc3cc(F)c(F)c(C#N)c3)c(F)cn2)ccc1C(N)=O` [Compound 9, 4-{4-[(3-cyano-4,5-difluorophenyl)methyl]-5-fluoropyridin-2-yl}-2-methylbenzamide]: 25 to 100 nM.
For `Cc1cc(Cc2ccnc(-c3ccc(C(N)=O)cc3)c2)ccc1F` [Compound 10, 4-{4-[(4-fluoro-3-methylphenyl)methyl]pyridin-2-yl}benzamide] the value was 25 to 100 nM; for `Cc1cc(-c2cc(Cc3cccc(S(C)(=O)=O)c3)ccn2)ccc1C(N)=O` [Compound 11, 4-{4-[(3-methanesulfonylphenyl)methyl]pyridin-2-yl}-2-methylbenzamide hydrochloride], 25 to 100 nM; for `Cc1cc(-c2cccc(Cc3cccc(C(F)(F)F)c3)n2)ccc1C(N)=O` [Compound 12, 2-methyl-4-(6-{[3-(trifluoromethyl)phenyl]methyl}pyridin-2-yl)benzamide], 25 to 100 nM.
In the case of `COc1cc(-c2cc(Cc3cc(F)c(F)c(C#N)c3)ccn2)ccc1C(N)=O` [Compound 13, 4-{4-[(3-cyano-4,5-difluorophenyl)methyl]pyridin-2-yl}-2-methoxybenzamide], the concentration giving a half-maximal response (EC50) was in the range of 25 to 100 nM.
For `NC(=O)c1ccc(-c2cc(Cc3cc(F)cc(C(F)(F)F)c3)ccn2)cc1` [Compound 14, 4-(4-{[3-fluoro-5-(trifluoromethyl)phenyl]methyl}pyridin-2-yl)benzamide] the value was 25 to 100 nM; for `Cc1cc(-c2cc(Cc3cc(F)c(F)c(C#N)c3)ccn2)cc(F)c1C(N)=O` [Compound 15, 4-{4-[(3-cyano-4,5-difluorophenyl)methyl]pyridin-2-yl}-2-fluoro-6-methylbenzamide], 25 to 100 nM; for `NC(=O)Cc1cccc(-c2cc(Cc3cccc(C(F)(F)F)c3)ccn2)c1` [Compound 16, 2-[3-(4-{[3-(trifluoromethyl)phenyl]methyl}pyridin-2-yl)phenyl]acetamide], 25 to 100 nM.
For `NC(=O)c1cccc(-c2cc(Cc3cc(F)cc(C(F)(F)F)c3)ccn2)c1` [Compound 17, 3-(4-{[3-fluoro-5-(trifluoromethyl)phenyl]methyl}pyridin-2-yl)benzamide] the value was 25 to 100 nM.
For `NC(=O)Cc1ccc(-c2cc(Cc3cccc(C(F)(F)F)c3)ccn2)cc1` [Compound 18, 2-[4-(4-{[3-(trifluoromethyl)phenyl]methyl}pyridin-2-yl)phenyl]acetamide] the value was 25 to 100 nM; for `Cc1cc(Cc2ccnc(-c3cccc(C(N)=O)c3)c2)ccc1F` [Compound 19, 3-{4-[(4-fluoro-3-methylphenyl)methyl]pyridin-2-yl}benzamide], 25 to 100 nM.
In the case of `COc1ccc(Cc2ccnc(-c3ccc(C(N)=O)cc3)c2)cc1F` [Compound 20, 4-{4-[(3-fluoro-4-methoxyphenyl)methyl]pyridin-2-yl}benzamide], the EC50 lay in the range of 101 to 1000 nM.
With `NC(=O)c1ccc(-c2cc(Cc3cc(F)cc(Cl)c3)ccn2)cc1` [Compound 21, 4-{4-[(3-chloro-5-fluorophenyl)methyl]pyridin-2-yl}benzamide], the EC50 was 101 to 1000 nM.
Regarding `Cc1cc(F)cc(Cc2ccnc(-c3cccc(C(N)=O)c3)c2)c1` [Compound 22, 3-{4-[(3-fluoro-5-methylphenyl)methyl]pyridin-2-yl}benzamide], the EC50 lay within 101 to 1000 nM.
For `NC(=O)c1ccc(-c2cc(Cc3ccc(F)c(C(F)(F)F)c3)ccn2)cc1` [Compound 23, 4-(4-{[4-fluoro-3-(trifluoromethyl)phenyl]methyl}pyridin-2-yl)benzamide], the EC50 was in the range of 101 to 1000 nM.
As for `N#Cc1cc(Cc2ccnc(-c3ccc(C(N)=O)c(F)c3)c2)cc(F)c1F` [Compound 24, 4-{4-[(3-cyano-4,5-difluorophenyl)methyl]pyridin-2-yl}-2-fluorobenzamide], the EC50 was 101 to 1000 nM.
For the compound `NC(=O)c1cccc(-c2cc(Cc3cc(F)cc(Cl)c3)ccn2)c1` [Compound 25, 3-{4-[(3-chloro-5-fluorophenyl)methyl]pyridin-2-yl}benzamide], the EC50 was in the range of 101 to 1000 nM.
The same measure for `NC(=O)c1ccc(-c2cc(Cc3cccc(OC(F)(F)F)c3)ccn2)cc1` [Compound 26, 4-(4-{[3-(trifluoromethoxy)phenyl]methyl}pyridin-2-yl)benzamide]: 101 to 1000 nM; for `CS(=O)(=O)c1cccc(Cc2ccnc(-c3ccc(C(N)=O)cc3)c2)c1` [Compound 27, 4-{4-[(3-methanesulfonylphenyl)methyl]pyridin-2-yl}benzamide]: 101 to 1000 nM.
The same measure for `Cc1cc(F)cc(Cc2ccnc(-c3ccc(C(N)=O)cc3)c2)c1` [Compound 28, 4-{4-[(3-fluoro-5-methylphenyl)methyl]pyridin-2-yl}benzamide]: 101 to 1000 nM; for `COc1ccc(Cc2ccnc(-c3cccc(C(N)=O)c3)c2)cc1F` [Compound 29, 3-{4-[(3-fluoro-4-methoxyphenyl)methyl]pyridin-2-yl}benzamide]: 101 to 1000 nM.
Take `N#Cc1cc(Cc2ccnc(-c3ccc(C(N)=O)cc3)c2)cc(F)c1F` [Compound 30, 4-{4-[(3-cyano-4,5-difluorophenyl)methyl]pyridin-2-yl}benzamide hydrochloride]: the EC50 is 101 to 1000 nM.
With `Cc1cc(-c2cc(Cc3cccc(S(C)(=O)=O)c3)c(F)cn2)ccc1C(N)=O` [Compound 31, 4-{5-fluoro-4-[(3-methanesulfonylphenyl)methyl]pyridin-2-yl}-2-methylbenzamide hydrochloride], the concentration giving a half-maximal response (EC50) fell in the range of 25 to 100 nM.
